Key:
Musca domestica adults = test: Musca domestica test (MUSCDO), Example 14; format: in vivo; conditions: application rate 100 ppm, treated sponge, after 2 days
Protocol: Musca domestica Test (MUSCDO) • Solvent: dimethyl sulphoxide To prepare an appropriate active ingredient formulation, 10 mg of active ingredient are mixed with 0.5 ml of dimethyl sulphoxide, and the concentrate is diluted with water to the desired concentration. Vessels containing a sponge which has been treated with the active ingredient formulation of the desired concentration are populated with Musca domestica adults. After 2 days, the kill rate in % is determined. 100% means that all flies were killed; 0% means that no flies were killed.

Boophilus microplus [1] = test: Boophilus microplus test (BOOPMI injection), Example 11; format: in vivo; conditions: application rate 20 μg/animal, injected into abdomen, after 7 days; for pest or weed control at 0.02 mg: Rhipicephalus microplus, 168 h, read-out: efficacy in % (fertile eggs laid)
Procedure, shortened: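 Efficacy rated from fertile egg laying: 100% means none of the ticks laid fertile eggs, read after 7 days. Compound, dissolved and diluted in DMSO, was delivered by abdominal injection, and ticks were kept in dishes under climate control.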

[2] = system: mustard beetle (Phaedon cochleariae); test: Phaedon test (PHAECO spray treatment), Example 16; format: in vivo; conditions: application rate 500 g/ha, china cabbage leaf discs sprayed, after the desired time; for pest or weed control at 500 g/ha: Phaedon cochleariae, foliar, read-out: efficacy in %
Protocol: Phaedon Test (PHAECO Spray Treatment)
(§1) • Solvent: 78.0 parts by weight of acetone • 1.5 parts by weight of dimethylformamide • Emulsifier: 0.5 part by weight of alkylaryl polyglycol ether
To prepare an appropriate active ingredient formulation, 1 part by weight of active ingredient is mixed with the stated amounts of solvent and emulsifier, and the concentrate is diluted with emulsifier-containing water to the desired concentration. […]
After the desired time, the efficacy in % is determined. 100% means that all beetle larvae were killed; 0% means that no beetle larvae were killed.

[3] = logP by HPLC on reverse-phase column (EEC Directive 79/831 Annex V.A8); format: physicochemical; conditions: for chromatographic logP: reverse-phase C18 HPLC column
Protocol: The logP values reported in the above Tables and Preparation Examples were determined according to EEC Directive 79/831 Annex V.A8 by HPLC (High Performance Liquid Chromatography) on a reverse-phase column (C18). Temperature 43° C.

Boophilus microplus [4] = test: Boophilus microplus test (BOOPMI injection), Example 1; format: in vivo; conditions: application rate 20 μg/animal, injected into abdomen, after 7 days
Protocol: Boophilus microplus Test (BOOPMI Injection) • Solvent: dimethyl sulphoxide To prepare an active ingredient formulation, 10 mg of active ingredient are mixed with 0.5 ml of solvent and the concentrate is diluted with water to the desired concentration. The active ingredient solution was injected into the abdomen (Boophilus microplus), and the animals were transferred to dishes and stored in a climate-controlled room. The efficacy was assessed by the number of fertile eggs laid. After 7 days, the efficacy in % is determined. 100% means that no tick laid fertile eggs.

[5] = system: armyworm (Spodoptera frugiperda); test: Spodoptera frugiperda test (SPODFR spray treatment), Example 15; format: in vivo; conditions: application rate 500 g/ha, maize leaf discs sprayed, after 7 days; for pest or weed control at 500 g/ha: Spodoptera frugiperda, foliar, 168 h, read-out: efficacy in %
Procedure, shortened: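 Caterpillars placed on dried, sprayed Zea mays leaf discs; formulation of acetone, dimethylformamide and emulsifier diluted with emulsifier-containing water to test concentration. Percent kill scored on day 7.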

[6] = system: mustard beetle (Phaedon cochleariae); test: Phaedon test (PHAECO spray treatment), Example 7; format: in vivo; conditions: application rate 20 g/ha, china cabbage leaf discs sprayed, after 7 days
Procedure, shortened: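 Spray formulation (acetone/DMF with alkylaryl polyglycol ether, diluted in emulsifier-containing water) applied to Chinese cabbage leaf discs, which were dried and then stocked with mustard beetle larvae. Efficacy scored at 7 days as % larvae killed (100% all, 0% none).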

[7] = system: red spider mite (Tetranychus urticae); test: Tetranychus test, OP-resistant (TETRUR spray treatment), Example 8; format: in vivo; conditions: application rate 20 g/ha, common bean leaf discs sprayed, after 6 days
Protocol: Tetranychus Test, OP-resistant (TETRUR Spray Treatment)
as §1
To prepare an active ingredient formulation, 1 part by weight of active ingredient is mixed with the stated amounts of solvent and emulsifier, and the concentrate is diluted with emulsifier-containing water to the desired concentration.
Leaf discs from the common bean (Phaseolus vulgaris) infested by all stages of the red spider mite (Tetranychus urticae) are sprayed with an active ingredient formulation of the desired concentration.
After 6 days, the efficacy in % is determined. 100% means that all spider mites were killed; 0% means that no spider mites were killed.

[8] = system: green peach aphid (Myzus persicae); test: Myzus test (MYZUPE spray treatment), Example 17; format: in vivo; conditions: application rate 500 g/ha, china cabbage leaf discs sprayed, after 6 days
Protocol: Myzus Test (MYZUPE Spray Treatment)
• Solvent: 78 parts by weight of acetone • 1.5 parts by weight of dimethylformamide • Emulsifier: 0.5 part by weight of alkylaryl polyglycol ether
To prepare an appropriate active ingredient formulation, 1 part by weight of active ingredient is mixed with the stated amounts of solvent and emulsifier, and the concentrate is diluted with emulsifier-containing water to the desired concentration. Leaf discs from china cabbage (Brassica pekinensis) infested by all stages of the green peach aphid (Myzus persicae) are sprayed with an active ingredient formulation of the desired concentration.
After 6 days, the efficacy in % is determined. 100% means that all aphids were killed; 0% means that no aphids were killed.

[9] = pH 2.7, HPLC, C18 reverse phase, 43° C., acidic range pH 2.7, calibration with alkan-2-ones

Cn1c(C(=O)NC(c2cccc(C(F)(F)F)c2)C(F)(F)F)cc2cc(C(=O)NC3CC3)c(Cl)cc21 (racemic) [Ic-25]
kill rate in % (efficacy) (Musca domestica adults): 100% | efficacy in % (fertile eggs laid) (Boophilus microplus [1]): 100%

O=C(/C=C/c1ccc(NC(=O)C2CC2)cc1)NC(c1cc(Cl)cc(Cl)c1)C(F)(F)F (centres unmarked) [Ia-1]
efficacy in % [2]: 83% | logP ([3]; HPLC-MS): HPLC-MS: logP = 3.77; mass

N#Cc1ccc(/C=C/C(=O)NC(c2cccc(C(F)(F)F)c2)C(F)(F)F)cc1 (centres unmarked) [Ia-8, (2E)-3-(4-Cyanophenyl)-N-{2,2,2-trifluoro-1-[3-(trifluoromethyl)phenyl]ethyl}acrylamide]
pest or weed control at 500 g/ha [2]: 100% | chromatographic logP [3, 9]: 3.54 | efficacy in % (fertile eggs laid) (Boophilus microplus [4]): 100% | pest or weed control at 500 g/ha [5]: 100% | pest or weed control at 0.02 mg (Boophilus microplus [1]): 100%

N#Cc1cc(/C=C/C(=O)NC(c2ccc(Cl)c(Cl)c2)C(F)(F)F)ccc1-n1cncn1 (centres unmarked) [Ia-17]
pest or weed control at 500 g/ha [2]: 100% | chromatographic logP [3, 9]: 3.22 | pest or weed control at 500 g/ha [5]: 100%

O=C(/C=C/c1ccc(C(=O)NCC(F)(F)F)c(Cl)c1)NC(c1cccc(C(F)(F)F)c1)C(F)(F)F (centres unmarked) [Ia-19]
logP ([3]; HPLC-MS): HPLC-MS: logP = 3.56; mass | kill rate in % (efficacy) (Musca domestica adults): 100% | efficacy in % (fertile eggs laid) (Boophilus microplus [1]): 100%

Cc1cc(/C=C/C(=O)NC(c2cccc(C(F)(F)F)c2)C(F)(F)F)ccc1C(=O)O (centres unmarked) [Ia-27]
efficacy in % [2]: 83% | logP ([3]; HPLC-MS): HPLC-MS: logP = 3.14; mass

N#Cc1ccc(/C=C/C(=O)NC(c2cccc(C(F)(F)F)c2)C(F)(F)F)cc1Cl (centres unmarked) [Ia-44]
logP ([3]; HPLC-MS): HPLC-MS: logP = 3.91; mass | efficacy in % (fertile eggs laid) (Boophilus microplus [4]): 100% | efficacy in % (fertile eggs laid) (Boophilus microplus [1]): 100%

N#Cc1ccc(/C=C/C(=O)NC(c2cccc(C(F)(F)F)c2)C(F)(F)F)cc1C(F)(F)F (centres unmarked) [Ia-46, (2E)-3-[4-cyano-3-(trifluoromethyl)phenyl]-N-{2,2,2-trifluoro-1-[3-(trifluoromethyl)phenyl]ethyl}acrylamide]
pest or weed control at 500 g/ha [2]: 100% | chromatographic logP ([3]; HPLC-MS): 4.06 | efficacy in % (fertile eggs laid) (Boophilus microplus [4]): 100% | pest or weed control at 500 g/ha [5]: 100% | pest or weed control at 0.02 mg (Boophilus microplus [1]): 100%

O=C(/C=C/c1ccc(C(=O)NC2COC2)c(C(F)(F)F)c1)NC(c1cccc(C(F)(F)F)c1)C(F)(F)F (centres unmarked) [Ia-59]
efficacy in % [6]: 100% | logP ([3]; HPLC-MS): HPLC MS: logP = 2.89; mass | efficacy in % [7]: 100% | efficacy in % [8]: 100% | efficacy in % [5]: 83%

O=C(/C=C/c1ccc(C(=O)NC2CCCC2C(F)(F)F)c(C(F)(F)F)c1)NC(c1cccc(C(F)(F)F)c1)C(F)(F)F (centres unmarked) [Ia-77]
logP ([3]; HPLC-MS): HPLC-MS: logP = 3.93; mass | efficacy in % (fertile eggs laid) (Boophilus microplus [4]): 100% | efficacy in % [7]: 80% | efficacy in % (fertile eggs laid) (Boophilus microplus [1]): 100%

CC(F)(F)CNC(=O)c1ccc(/C=C/C(=O)NC(c2cccc(C(F)(F)F)c2)C(F)(F)F)cc1C(F)(F)F (centres unmarked) [Ia-79]
efficacy in % [6]: 100% | logP ([3]; HPLC-MS): HPLC-MS: logP = 3.65; mass | efficacy in % [7]: 90% | efficacy in % [8]: 90%

From patent US8889878B2, “Haloalky-substituted amides as insecticides and acaricides” (Bayer CropScience AG, priority 2009, dated 2014)
